# Measured values taken from ChEMBL document CHEMBL1146872, “Synthesis, biochemical evaluation and rationalisation of the inhibitory activity of a series of 4-hydroxyphenyl ketones as potential inhibitors of 17beta-hydroxysteroid dehydrogenase type 3 (17beta-HSD3)” (Bioorg Med Chem Lett, 2006).
# How the values were obtained:
# [1] = target: 17beta-HSD3 (Rattus norvegicus); assay: Inhibition of 17beta-HSD3
# [2] = system: 17beta-HSD3 (Rattus norvegicus); assay: Inhibition of 17beta-HSD3 at 100 uM
SMILES,IC50 [1] [µM],inhibition [2] [%]
CCCCCCCCCCCC(=O)c1ccc(O)cc1,7.55,78.9
CCCCCCCCCC(=O)c1ccc(O)cc1,4.97,81.4
CCCCCC(=O)c1ccc(O)cc1,18,76.4
CCCCCCCC(=O)c1ccc(O)cc1,6.52,82.6
CCCCCCC(=O)c1ccc(O)cc1,7.84,80.3
